Test results published in patent US10941157B2, “Pesticidal compositions and uses thereof” (Gilead Apollo, LLC, priority 2015, dated 2021).
Values after ≈ are worked out from the molar mass of the structure shown. Read-outs that look alike come from different tables or passages of the source.

Legend:
Assay type in all cases: cell-based
Rhizoctonia solani (Rs) = experiment: In vitro pathogen growth inhibition assay, Rs (mycelial plugs); settings: Rhizoctonia solani, 48 h
Summary of the method: (§1)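 Spores of Dm, Fv and Pc were diluted in 17% V8 liquid medium; Rs used 1.5 mm mycelial plugs in ¼ PDB. Compounds from 2.5 mg/ml DMSO stocks were combined with inoculum, growth was read by OD600 at 24 and 48 h with blank subtraction, and the reported value is the concentration giving ≥90% inhibition.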

Septoria tritici (St) = experiment: In vitro pathogen growth inhibition assay, St; settings: Zymoseptoria tritici, 48 h
Summary of the method: (§2)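 Spores in 17% V8 liquid medium, or 1.5 mm Rs mycelial plugs in ¼ PDB, incubated with compound; final concentration checked by OD600 for precipitation. OD readings at 24 and 48 h, blank-subtracted, plus visual ratings; value is concentration giving ≥90% growth inhibition.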

[1] = system: Fusarium moniliforme (Fm); experiment: In vitro pathogen growth inhibition assay, Fm; settings: Fusarium verticillioides
Summary of the method: as §2

[2] = system: Phytophthora capsici (Pc); experiment: In vitro pathogen growth inhibition assay, Pc; settings: 48 h
Summary of the method: as §1

Botrtyis cinerea (Bc) = experiment: In vitro pathogen growth inhibition assay, Bc; settings: 48 h
Summary of the method: as §2

[3] = system: Collectotrichum graminicola (Cg); experiment: In vitro pathogen growth inhibition assay, Cg; settings: 48 h
Summary of the method: as §2

[4] = system: Fusarium virguliforme (Fv); experiment: In vitro pathogen growth inhibition assay, Fv
Summary of the method: as §1

Diplodia maydis (Dm) = experiment: In vitro pathogen growth inhibition assay, Dm; settings: Stenocarpella maydis, 48 h
Summary of the method: as §1

[5] = ≥90% growth inhibition, mycelial plugs, 48 hours, vs 2% DMSO control, read-out: Compound Concentration (ppm) sufficient for ≥90% inhibition of Rs
[6] = ≥90% growth inhibition, 48 hours, vs 2% DMSO control, read-out: Compound Concentration (ppm) sufficient for ≥90% inhibition of St
[7] = ≥90% growth inhibition, 48 hours, vs 2% DMSO control, read-out: Compound Concentration (ppm) sufficient for ≥90% inhibition of Fm
[8] = ≥90% growth inhibition, 48 hours, vs 2% DMSO control, read-out: Compound Concentration (ppm) sufficient for ≥90% inhibition of Pc
[9] = ≥90% growth inhibition, 48 hours, vs 2% DMSO control, read-out: Compound Concentration (ppm) sufficient for ≥90% inhibition of Bc
[10] = ≥90% growth inhibition, 48 hours, vs 2% DMSO control, read-out: Compound Concentration (ppm) sufficient for ≥90% inhibition of Cg
[11] = ≥90% growth inhibition, 48 hours, vs 2% DMSO control, read-out: Compound Concentration (ppm) sufficient for ≥90% inhibition of Fv
[12] = ≥90% growth inhibition, 48 hours, vs 2% DMSO control, read-out: Compound Concentration (ppm) sufficient for ≥90% inhibition of Dm

| Structure (SMILES) | IC90 (Rhizoctonia solani (Rs); [5]) [µg/mL] | IC90 (Septoria tritici (St); [6]) [µg/mL] | IC90 [1, 7] [µg/mL] | IC90 [2, 8] [µg/mL] | IC90 (Botrtyis cinerea (Bc); [9]) [µg/mL] | IC90 [3, 10] [µg/mL] | IC90 [4, 11] [µg/mL] | IC90 (Diplodia maydis (Dm); [12]) [µg/mL] | IC90 (Rhizoctonia solani (Rs); concentration sufficient to ≥90% inhibition of growth, 48 hours vs 2% DMSO control, read-out: Compound Concentration (ppm) for ≥90% inhibition, Rs) [µg/mL] | IC90 (Septoria tritici (St); concentration sufficient to ≥90% inhibition of growth, 48 hours vs 2% DMSO control, read-out: Compound Concentration (ppm) for ≥90% inhibition, St) [µg/mL] | IC90 ([1]; concentration sufficient to ≥90% inhibition of growth, 48 hours vs 2% DMSO control, read-out: Compound Concentration (ppm) for ≥90% inhibition, Fm) [µg/mL] | IC90 ([2]; concentration sufficient to ≥90% inhibition of growth, 48 hours vs 2% DMSO control, read-out: Compound Concentration (ppm) for ≥90% inhibition, Pc) [µg/mL] | IC90 (Botrtyis cinerea (Bc); concentration sufficient to ≥90% inhibition of growth, 48 hours vs 2% DMSO control, read-out: Compound Concentration (ppm) for ≥90% inhibition, Bc) [µg/mL] | IC90 ([3]; concentration sufficient to ≥90% inhibition of growth, 48 hours vs 2% DMSO control, read-out: Compound Concentration (ppm) for ≥90% inhibition, Cg) [µg/mL] | IC90 ([4]; concentration sufficient to ≥90% inhibition of growth, 48 hours vs 2% DMSO control, read-out: Compound Concentration (ppm) for ≥90% inhibition, Fv) [µg/mL] | IC90 (Diplodia maydis (Dm); concentration sufficient to ≥90% inhibition of growth, 48 hours vs 2% DMSO control, read-out: Compound Concentration (ppm) for ≥90% inhibition, Dm) [µg/mL] |
| --- | --- | --- | --- | --- | --- | --- | --- | --- | --- | --- | --- | --- | --- | --- | --- | --- |
| CCNC(=O)C(C)(C)n1c(=O)c2c(C)c(-n3cccn3)sc2n(C[C@H](OCCC#N)c2ccccc2OC)c1=O [Compound I-232] | 2 (≈ 3.54 µM) | > 50 | 2 (≈ 3.54 µM) | > 50 | 10 (≈ 17.7 µM) | 10 (≈ 17.7 µM) | 0.4 (≈ 0.708 µM) | 50 (≈ 88.5 µM) | – | – | – | – | – | – | – | – |
| CCNC(=O)C(C)(C)n1c(=O)c2c(C)c(-n3cccn3)sc2n(C[C@H](OCCC#N)c2cc(F)ccc2OC)c1=O [Compound I-235] | 2 (≈ 3.43 µM) | > 50 | 0.4 (≈ 0.687 µM) | > 50 | 2 (≈ 3.43 µM) | 2 (≈ 3.43 µM) | 2 (≈ 3.43 µM) | ≥ 2 | – | – | – | – | – | – | – | – |
| COc1ccccc1[C@H](Cn1c(=O)n([C@H](C)C(=O)N(C)C(C)C)c(=O)c2c(C)c(-n3nccn3)sc21)OCCC#N [Compound I-238] | 10 (≈ 17.3 µM) | > 50 | 2 (≈ 3.45 µM) | > 50 | 2 (≈ 3.45 µM) | 10 (≈ 17.3 µM) | 10 (≈ 17.3 µM) | 10 (≈ 17.3 µM) | – | – | – | – | – | – | – | – |
| COc1ccccc1[C@H](Cn1c(=O)n([C@H](C)C(=O)N(C)C(C)C)c(=O)c2c(C)c(-n3cccn3)sc21)OCCC#N [Compound I-242] | 2 (≈ 3.46 µM) | ≥ 50 | 0.4 (≈ 0.691 µM) | > 50 | 2 (≈ 3.46 µM) | 2 (≈ 3.46 µM) | 2 (≈ 3.46 µM) | 2 (≈ 3.46 µM) | – | – | – | – | – | – | – | – |
| COc1ccc(F)cc1[C@H](Cn1c(=O)n([C@@H](C)C(=O)N(C)C(C)C)c(=O)c2c(C)c(-n3cccn3)sc21)OCCC#N [Compound I-243] | 2 (≈ 3.35 µM) | ≥ 50 | 2 (≈ 3.35 µM) | > 50 | 10 (≈ 16.8 µM) | 2 (≈ 3.35 µM) | 50 (≈ 83.8 µM) | 10 (≈ 16.8 µM) | – | – | – | – | – | – | – | – |
| COc1ccc(F)cc1[C@H](Cn1c(=O)n([C@@H](C)C(=O)N(C)C(C)C)c(=O)c2c(C)c(-n3cccn3)sc21)OCCO [Compound I-244] | 0.4 (≈ 0.681 µM) | ≥ 50 | 0.4 (≈ 0.681 µM) | 10 (≈ 17 µM) | 2 (≈ 3.4 µM) | 2 (≈ 3.4 µM) | 2 (≈ 3.4 µM) | 10 (≈ 17 µM) | – | – | – | – | – | – | – | – |
| Cc1ccc(F)cc1[C@H](Cn1c(=O)n(C(C)(C)C(=O)NC(C)C)c(=O)c2c(C)c(-n3nccn3)sc21)OCCO [Compound I-245] | 0.08 (≈ 0.14 µM) | ≥ 2 | 0.08 (≈ 0.14 µM) | 50 (≈ 87.3 µM) | 0.4 (≈ 0.698 µM) | 0.4 (≈ 0.698 µM) | 0.08 (≈ 0.14 µM) | 2 (≈ 3.49 µM) | – | – | – | – | – | – | – | – |
| CCc1ccc(F)cc1[C@H](Cn1c(=O)n(C(C)(C)C(=O)NC(C)C)c(=O)c2c(C)c(-n3nccn3)sc21)OCCOC [Compound I-247] | 2 (≈ 3.33 µM) | ≥ 10 | 0.08 (≈ 0.133 µM) | > 50 | 0.4 (≈ 0.666 µM) | 0.4 (≈ 0.666 µM) | 0.4 (≈ 0.666 µM) | 2 (≈ 3.33 µM) | – | – | – | – | – | – | – | – |
| COCCO[C@@H](Cn1c(=O)n(C(C)(C)C(=O)NC(C)C)c(=O)c2c(C)c(-n3nccn3)sc21)c1cc(F)ccc1C [Compound I-248] | 10 (≈ 17 µM) | ≥ 10 | 0.4 (≈ 0.682 µM) | > 50 | 2 (≈ 3.41 µM) | 2 (≈ 3.41 µM) | 0.4 (≈ 0.682 µM) | ≥ 10 | – | – | – | – | – | – | – | – |
| COCCO[C@@H](Cn1c(=O)n(C(C)(C)C(=O)N2CCCC2)c(=O)c2c(C)c(-n3nccn3)sc21)c1cc(F)ccc1C [Compound I-249] | 10 (≈ 16.7 µM) | > 50 | 2 (≈ 3.34 µM) | > 50 | 2 (≈ 3.34 µM) | 2 (≈ 3.34 µM) | 2 (≈ 3.34 µM) | ≥ 10 | – | – | – | – | – | – | – | – |
| COc1ccc(F)cc1[C@H](Cn1c(=O)n([C@H](C)C(=O)N(C)C(C)C)c(=O)c2c(C)c(-n3cccn3)sc21)OCCO [Compound I-250] | 2 (≈ 3.4 µM) | > 50 | 2 (≈ 3.4 µM) | > 50 | 2 (≈ 3.4 µM) | 10 (≈ 17 µM) | 2 (≈ 3.4 µM) | > 50 | – | – | – | – | – | – | – | – |
| COc1ccc(F)cc1[C@H](Cn1c(=O)n([C@@H](C)C(=O)NC(C)C)c(=O)c2c(C)c(-n3nccn3)sc21)OCC(C)(C)C#N [Compound I-254] | > 50 | > 50 | 2 (≈ 3.27 µM) | > 50 | 2 (≈ 3.27 µM) | > 50 | > 50 | ≥ 10 | – | – | – | – | – | – | – | – |
| COc1ccc(F)cc1[C@H](Cn1c(=O)n([C@H](C)C(N)=O)c(=O)c2c(C)c(-n3nccn3)sc21)OCC(C)(C)C#N [Compound I-255] | 2 (≈ 3.51 µM) | > 50 | 2 (≈ 3.51 µM) | > 50 | 2 (≈ 3.51 µM) | ≥ 10 | ≥ 10 | ≥ 10 | – | – | – | – | – | – | – | – |
| COc1ccc(F)cc1[C@H](Cn1c(=O)n([C@@H](C)C(N)=O)c(=O)c2c(C)c(-n3nccn3)sc21)OCC(C)(C)C#N [Compound I-256] | – | – | – | – | – | – | – | – | 50 (≈ 87.8 µM) | > 50 | 10 (≈ 17.6 µM) | > 50 | 50 (≈ 87.8 µM) | 50 (≈ 87.8 µM) | 50 (≈ 87.8 µM) | 50 (≈ 87.8 µM) |
| COc1ccc(F)cc1[C@H](Cn1c(=O)n(C(C)(C)C(=O)NC(C)C)c(=O)c2c(C)c(-n3cccn3)sc21)OCC#N [Compound I-257] | 2 (≈ 3.43 µM) | > 50 | 0.4 (≈ 0.687 µM) | > 50 | 2 (≈ 3.43 µM) | 2 (≈ 3.43 µM) | 0.4 (≈ 0.687 µM) | 50 (≈ 85.8 µM) | – | – | – | – | – | – | – | – |
| COc1ccc(F)cc1[C@H](Cn1c(=O)n(C(C)(C)C(=O)NC(C)C)c(=O)c2c(C)c(-n3nccn3)sc21)O[C@H]1CC[C@@H](O)CC1 [Compound I-264] | 0.08 (≈ 0.124 µM) | > 50 | 0.08 (≈ 0.124 µM) | 50 (≈ 77.8 µM) | 0.4 (≈ 0.622 µM) | 2 (≈ 3.11 µM) | 0.4 (≈ 0.622 µM) | 2 (≈ 3.11 µM) | – | – | – | – | – | – | – | – |
